Data on four compounds can be found in PMC8116058, “De novo macrocyclic peptides dissect energy coupling of a heterodimeric ABC transporter by multimode allosteric inhibition” (eLife, 2021).

One assay deals with TmrAB in liposomes. The experiment in a line: Filter-based transport assay, inhibition of C4F translocation. Type of assay: biochemical, Thermus thermophilus. The conditions noted are these: C4F 3 µM, CP^F 1 µM, 15 min 45°C; for Transported C4F peptide: TmrAB 0.4 µM. The source says: In order to investigate the functional impact of CPs, we examined the effect of the CPs on ATP hydrolysis and substrate transport of TmrAB (Figure 3A). We reconstituted TmrAB in liposomes and first assayed the ATPase activity. […] We next set out to investigate peptide transport by TmrAB using a filter-based transport assay. To investigate whether CPs are recognized as substrates by TmrAB, we added fluorescein-labeled CP^Fs and examined ATP-dependent translocation. In contrast to the linear substrate peptide C4F, none of the CP^Fs were transported by TmrAB (Figure 3C). Next, we examined ATP-dependent transport of C4F peptides in the presence and absence of the different CPs.
Figure 3. CP^Fs are potent inhibitors of ATP turnover and substrate transport. (A) Experimental scheme of ATP hydrolysis and peptide transport by TmrAB. (B) CP^Fs inhibit ATP hydrolysis. TmrAB in liposomes (100 nM) was incubated with ATP (2 mM, traced with [γ^32P]-ATP), and MgCl2 (5 mM) in the presence and absence of CP^Fs (1 µM) for 10 min at 45°C. Autohydrolysis was determined in the absence of TmrAB, and background turnover was conducted in the presence of EDTA (10 mM). Release of [γ^32P] was quantified by thin layer chromatography. (C) CP^Fs are not transported by TmrAB. TmrAB (0.4 µM) reconstituted in liposomes was incubated with C4F peptide (3 µM) or CP^Fs (1 µM) in the presence of ATP/ADP (3 mM) and MgCl2 (5 mM) for 5 min at 45°C. Since CP^Fs were dissolved in maximal 0.5% (v/v) of DMSO, C4F plus 0.5% DMSO served as control. Proteoliposomes were washed on filter plates, and transported peptides were quantified at λex/em = 485/520 nm. (D) Inhibition of substrate translocation. TmrAB in liposomes (0.4 µM) were incubated with C4F peptide (3 µM), ATP/ADP (3 mM), and MgCl2 (5 mM) in the presence and absence of CP^Fs (1 µM) for 15 min at 45°C. Transported peptides were quantified as described in (C). In (B–C), mean values ± SD (n = 3) are shown. Figure 3—source data 1. Source data for Figure 3.
TmrAB in liposomes (0.4 µM) were incubated with ATP/ADP (3 mM), MgCl2 (5 mM), C4F peptide (3 µM), and CP^Fs (1 µM) for 15 min at 45°C. […] Proteoliposomes were solubilized by adding SDS (1% [v/v]) in transport buffer for 10 min at 20°C. Transported peptides were quantified at λex/em = 485/520 nm using a microplate reader (CLARIOstar, BMG LABTECH).

For another assay, the system named is wild-type TmrAB. The experiment in a line: Nucleotide occlusion, wild-type TmrAB. Type of assay: biochemical, Thermus thermophilus. The conditions noted are these: 5 min 45°C; for Effect on nucleotide occlusion, wild-type TmrAB: CP^F 4 µM; for Occluded nucleotides, ADP / Occluded nucleotides, ATP: TmrAB 2 µM, CP^F 4 µM or orthovanadate 1 mM, ATP 1 mM traced with [α32P]-ATP, normalized to vanadate-trapped state. On the procedure:
Figure 5. […] (A, B) CP6^F (A) or CP13^F (B, 50 nM each) were incubated with increasing concentrations of detergent-solubilized inward-facing TmrAB (in the absence of Mg-ATP) or outward-facing TmrA^EQB, which was trapped with Mg-ATP (1 mM) for 5 min at 45°C as described ([Hofmann et al., 2019]; [Stefan et al., 2020]). Immediately after, the fluorescence anisotropy was assayed at λex/em = 485/520 nm. The difference in fluorescence polarization was normalized to free and fully bound CP^F. Data were fitted by a one-site binding model. […] TmrAB (2 µM each) were mixed with CP^Fs (4 µM), ATP (1 mM, traced with [α^32P]-ATP), and MgCl2 (5 mM) for 5 min at 4°C or 45°C. Cold ATP (10 mM) was added, and freely exchangeable nucleotides were removed by rapid gel filtration. Occluded nucleotides were analyzed by thin layer chromatography and autoradiography. Representative radiograms for independent triplicates are shown. (D) Stably occluded nucleotides, [α^32P]-ATP and [α^32P]-ADP, were quantified by autoradiography. Data were normalized to the vanadate-trapped state. In (A, B, D), mean values ± SD (n = 3) are shown. Figure 5—source data 1. Source Data for Figure 5. Figure 5—figure supplement 1. […] (A) CP^Fs (50 nM each) were incubated with increasing concentrations of detergent-solubilized IF TmrAB in the inward-facing (IF) conformation (absence of Mg-ATP) or TmrA^EQB populated in the outward-facing (OF) conformation, which was trapped in the OF conformation by Mg-ATP (1 mM) after 5 min incubation at 45°C. The difference in fluorescence polarization was normalized to unbound (0%) and 100% bound CP^F. Data were fitted by a one-site binding model. Fluorescence anisotropy was recorded at λex/em = 485/520 nm. […] TmrA^EQB (2 µM) were incubated in the absence and presence of CP^Fs (4 µM each), ATP (1 mM, traced with [α^32P]-ATP), and MgCl2 (5 mM) for 5 min at 4°C or 45°C. Cold ATP (10 mM) was added, and free nucleotides were removed by rapid gel filtration. Occluded nucleotides were analyzed by thin layer chromatography and autoradiography. Representative radiograms for independent triplicates are shown. […] Figure 5—figure supplement 1—source data 1.
We also examined the impact of CP^Fs on the IF-to-OF transition of wild-type TmrAB induced by ATP binding through nucleotide occlusion (stable trapping) as the readout. We induced the IF-to-OF switch with radiotraced [α^32P]-ATP for 5 min at 45°C in the presence and absence of CPs and removed unbound nucleotides by rapid gel filtration. Subsequently, the occluded nucleotides were identified and quantified by thin layer chromatography and autoradiography (Figure 5C, D).
Detergent-solubilized TmrAB (2 µM) were incubated with ATP (1 mM) traced with [α^32P]-ATP (Hartmann Analytic), MgCl2 (5 mM), CP^Fs (4 µM), or orthovanadate (1 mM) for 5 min at 45°C. Cold ATP (10 mM) was added, and unbound nucleotides were removed by rapid gel filtration (Bio-Spin columns P-30, Bio-Rad). ATP (10 mM) was added, and samples were spotted onto polyethyleneimine cellulose plates (Merck Millipore). Thin-layer chromatography was performed using 0.75 M KH2PO4 pH 3.4.

The mark [1] stands for this setting: ADP 3 mM (background), without CP 0.01.

SMILES strings stand for the structures. Positions of bridges follow the written chain, without caps; N, C: chain ends. Non-standard residues stand in square brackets, D forms with d. Residues, ends and D or L forms follow the SMILES beside them. *: point of attachment. 5FAM = O=C1OC2(c3ccc(O)cc3Oc3cc(O)ccc32)c2ccc(C(=O)*)cc21; βAla = NCCC(=O)O

`CC(C)C[C@@H]1NC(=O)[C@H](Cc2ccccc2)NC(=O)CNC(=O)[C@H](CO)NC(=O)[C@H](Cc2ccccc2)NC(=O)[C@H](CC(=O)O)NC(=O)[C@@H]2CCCN2C(=O)[C@H]([C@@H](C)O)NC(=O)[C@@H](Cc2ccc(O)cc2)NC(=O)CSC[C@@H](C(=O)NCC(=O)N[C@@H](CO)C(=O)NCCC(=O)NCCC(=O)N[C@@H](CCCNC(=N)N)C(=O)N[C@@H](CCCCNC(=O)c2ccc3c(c2)C(=O)OC32c3ccc(O)cc3Oc3cc(O)ccc32)C(N)=O)NC(=O)[C@H](C)NC(=O)[C@H](CC(N)=O)NC(=O)[C@H](CCCNC(=N)N)NC(=O)[C@H](CC(C)C)NC(=O)[C@H](Cc2ccccc2)NC(=O)[C@H](C)NC1=O` [CP12] ({CH2CO}-[dY]TPDFSGFLAFLRNACGS[βAla][βAla]RK(5FAM)-NH2; thioether N-16): in the assay on TmrAB in liposomes (setting [1]), the “Transported C4F peptide” value came out at 0.41 µmol·g/min. In addition, the “Transported C4F peptide” value with TmrAB in liposomes (ATP 3 mM, without CP 1.66) was 0.41 µmol·g/min. The “Effect on ATP-dependent C4F peptide translocation” value in the assay on TmrAB in liposomes is given as “completely blocked peptide translocation”. In the assay on wild-type TmrAB, the “Effect on nucleotide occlusion, wild-type TmrAB” value (“Effect on nucleotide occlusion” below) is recorded as “nucleotide occlusion was completely abolished”; the “Occluded nucleotides, ADP” value worked out at 3.67%; the “Occluded nucleotides, ATP” value worked out at 7.52%.

Consider `CC[C@H](C)[C@@H]1NC(=O)[C@H]([C@@H](C)O)NC(=O)[C@H](CC(C)C)NC(=O)[C@H](Cc2c[nH]c3ccccc23)NC(=O)[C@H](Cc2ccccc2)NC(=O)[C@H](CC(N)=O)NC(=O)[C@H](CCC(=O)O)NC(=O)[C@H](CC(C)C)NC(=O)[C@H](CS)NC(=O)[C@H](Cc2c[nH]cn2)NC(=O)[C@H](CO)NC(=O)[C@@H](Cc2ccc(O)cc2)NC(=O)CSC[C@@H](C(=O)NCC(=O)N[C@@H](CO)C(=O)NCCC(=O)NCCC(=O)N[C@@H](CCCNC(=N)N)C(=O)N[C@@H](CCCCNC(=O)c2ccc3c(c2)C(=O)OC32c3ccc(O)cc3Oc3cc(O)ccc32)C(N)=O)NC(=O)[C@H](CC(C)C)NC1=O` [CP6] ({CH2CO}-[dY]SHCLENFWLTILCGS[βAla][βAla]RK(5FAM)-NH2; thioether N-14), for which the “Transported C4F peptide” value in the assay with TmrAB in liposomes (setting [1]) came out at 0.37 µmol·g/min. In addition, in the assay on TmrAB in liposomes (ATP 3 mM, without CP 1.66), the “Transported C4F peptide” value was found to be 0.29 µmol·g/min. The “Effect on ATP-dependent C4F peptide translocation” value in the assay on TmrAB in liposomes is reported as “completely blocked peptide translocation”. In addition, in the assay on wild-type TmrAB, the “Effect on nucleotide occlusion” value is recorded as “nucleotide occlusion was completely abolished”; the “Occluded nucleotides, ADP” value was found to be 2.66%; the “Occluded nucleotides, ATP” value was 6.76%.

In the case of `CC(C)[C@@H]1NC(=O)[C@H](Cc2ccccc2)NC(=O)[C@@H]2CCCN2C(=O)[C@H](CC(N)=O)NC(=O)[C@H](Cc2c[nH]c3ccccc23)NC(=O)[C@H](C(C)C)NC(=O)[C@H](Cc2ccc(O)cc2)NC(=O)[C@H](Cc2ccccc2)NC(=O)[C@@H](Cc2ccc(O)cc2)NC(=O)CSC[C@@H](C(=O)NCC(=O)N[C@@H](CO)C(=O)NCCC(=O)NCCC(=O)N[C@@H](CCCNC(=N)N)C(=O)N[C@@H](CCCCNC(=O)c2ccc3c(c2)C(=O)OC32c3ccc(O)cc3Oc3cc(O)ccc32)C(N)=O)NC(=O)[C@H](CCCCN)NC(=O)[C@H](Cc2ccccc2)NC1=O` [CP14] ({CH2CO}-[dY]FYVWNPFVFKCGS[βAla][βAla]RK(5FAM)-NH2; thioether N-12; C-terminus assumed), the “Transported C4F peptide” value in the assay with TmrAB in liposomes (setting [1]) was 0.15 µmol·g/min. For the same compound, the “Transported C4F peptide” value with TmrAB in liposomes (ATP 3 mM, without CP 1.66) is 0.41 µmol·g/min. Moreover, the “Effect on ATP-dependent C4F peptide translocation” value with TmrAB in liposomes is given as “only caused a partial inhibition”. Further, in the assay with wild-type TmrAB, the “Effect on nucleotide occlusion” value was “promoted stable ATP occlusion”; the “Occluded nucleotides, ADP” value is 8.19%; the “Occluded nucleotides, ATP” value was 88.51%.

On to `CC[C@H](C)[C@@H]1NC(=O)[C@H](Cc2c[nH]c3ccccc23)NC(=O)[C@H](CC(N)=O)NC(=O)[C@H](C)NC(=O)[C@H](CO)NC(=O)[C@@H]2CCCN2C(=O)[C@H](CC(=O)O)NC(=O)[C@@H](Cc2ccc(O)cc2)NC(=O)CSC[C@@H](C(=O)NCC(=O)N[C@@H](CO)C(=O)NCCC(=O)NCCC(=O)N[C@@H](CCCNC(=N)N)C(=O)N[C@@H](CCCCNC(=O)c2ccc3c(c2)C(=O)OC32c3ccc(O)cc3Oc3cc(O)ccc32)C(N)=O)NC(=O)[C@H]([C@@H](C)O)NC(=O)[C@H](CC(C)C)NC(=O)[C@H](CC(C)C)NC(=O)[C@H](C(C)C)NC(=O)[C@H](CC(C)C)NC1=O` [CP13] ({CH2CO}-[dY]DPSANWILVLLTCGS[βAla][βAla]RK(5FAM)-NH2; thioether N-14; C-terminus assumed), for which, in the assay on TmrAB in liposomes (setting [1]), the “Transported C4F peptide” value is 0.25 µmol·g/min. Besides, the “Transported C4F peptide” value in the assay with TmrAB in liposomes (ATP 3 mM, without CP 1.66) came out at 0.41 µmol·g/min. Besides, the “Effect on ATP-dependent C4F peptide translocation” value in the assay with TmrAB in liposomes is listed as “only caused a partial inhibition”. In addition, in the assay on wild-type TmrAB, the “Effect on nucleotide occlusion” value is listed as “promoted stable ATP occlusion”; the “Occluded nucleotides, ADP” value was 10.47%; the “Occluded nucleotides, ATP” value is on record as 55.84%.
